Experiment: xn = mol fraction of the nth substance listed

CC(=O)CC(C)C + CC(=O)O
viscosity [mPa·s]
Conditions	293.15 K	298.15 K	308.15 K	318.15 K
101.32 kPa, x1 = 0.048	1.179	1.085	0.9387	0.82
101.32 kPa, x1 = 0.102	–	–	–	0.7844
101.32 kPa, x1 = 0.103	1.122	1.037	0.8955	–
101.32 kPa, x1 = 0.164	1.065	0.9866	0.8505	0.7456
101.32 kPa, x1 = 0.233	–	–	–	0.708
101.32 kPa, x1 = 0.234	1.004	0.9325	0.803	–
101.32 kPa, x1 = 0.313	–	–	–	0.6696
101.32 kPa, x1 = 0.314	0.9417	0.8743	0.7592	–
101.32 kPa, x1 = 0.405	–	–	–	0.6271
101.32 kPa, x1 = 0.406	0.8773	0.8108	0.7072	–
101.32 kPa, x1 = 0.514	0.8105	0.752	0.6636	0.5844
101.32 kPa, x1 = 0.646	–	–	–	0.5401
101.32 kPa, x1 = 0.647	0.7427	0.688	0.6078	–
101.32 kPa, x1 = 0.805	–	0.6272	0.5546	0.4944
101.32 kPa, x1 = 0.806	0.6691	–	–	–
101.33 kPa, x1 = 0.048	1.179	1.085	0.9387	0.82
101.33 kPa, x1 = 0.102	–	–	–	0.7844
101.33 kPa, x1 = 0.103	1.122	1.037	0.8955	–
101.33 kPa, x1 = 0.164	1.065	0.9866	0.8505	0.7456
101.33 kPa, x1 = 0.233	–	–	–	0.708
101.33 kPa, x1 = 0.234	1.004	0.9325	0.803	–
101.33 kPa, x1 = 0.313	–	–	–	0.6696
101.33 kPa, x1 = 0.314	0.9417	0.8743	0.7592	–
101.33 kPa, x1 = 0.405	–	–	–	0.6271
101.33 kPa, x1 = 0.406	0.8773	0.8108	0.7072	–
101.33 kPa, x1 = 0.514	0.8105	0.752	0.6636	0.5844
101.33 kPa, x1 = 0.646	–	–	–	0.5401
101.33 kPa, x1 = 0.647	0.7427	0.688	0.6078	–
101.33 kPa, x1 = 0.805	–	0.6272	0.5546	0.4944
101.33 kPa, x1 = 0.806	0.6691	–	–	–

CC(=O)CC(C)C + CCCCCCC
298.15 K, 101 kPa
Conditions	viscosity [mPa·s]
x1 = 0.1142	0.39
x1 = 0.2052	0.397
x1 = 0.3088	0.407
x1 = 0.4417	0.424
x1 = 0.5341	0.438
x1 = 0.6443	0.458
x1 = 0.7444	0.478
x1 = 0.8854	0.511

CC(C)CC(C)(C)C + CCCCCC
298.15 K, 101 kPa
Conditions	viscosity [mPa·s]
x1 = 0.05688	0.3093
x1 = 0.1612	0.3278
x1 = 0.2742	0.3441
x1 = 0.3413	0.3538
x1 = 0.4585	0.373
x1 = 0.5556	0.3897
x1 = 0.6116	0.3995
x1 = 0.7348	0.4226
x1 = 0.7874	0.4329
x1 = 0.852	0.4445
x1 = 0.9128	0.4582
x1 = 0.9559	0.4674
x2 = 0.03385	0.484

Source: the CheMixHub viscosity set
